Measurements published in the NIST ThermoML archive (doi:10.1021/acs.jced.5b00662).
Values joined by “and” are separate entries in the source; they are usually repeats but may differ in a detail not shown here. Identical values can stand only once. Numbers after ± are expanded uncertainties.

Tests used:
[1] = 101.33 kPa, Liquid; for speed of sound: Sing-around technique in a fixed-path interferometer; for mass density: Vibrating tube method; for viscosity: Concentric cylinders viscometry
[2] = refractive index (Na D-line) (dimensionless); conditions: 101.33 kPa, Liquid, Standard Abbe refractometry

A speed of sound ([1]; 283.15 K) of 1360.6 ± 1.5 m/s, a mass density ([1]; 283.15 K) of 941.2 ± 2 kg/m3 and a viscosity ([1]; 288.15 K) of 2.314 ± 0.094 mPa·s were found for `CCOCCO` [2-ethoxyethan-1-ol] in this work. The speed of sound ([1]; 288.15 K) was 1342 ± 1.5 m/s, the mass density ([1]; 288.15 K) was 936.8 ± 2 kg/m3 and 936.7 ± 2 kg/m3 and the viscosity ([1]; 293.15 K) was 2.066 ± 0.084 mPa·s. The speed of sound ([1]; 293.15 K) was 1323.9 ± 1.5 m/s, the mass density ([1]; 293.15 K) was 932.3 ± 2 kg/m3 and 932.2 ± 2 kg/m3 and the viscosity ([1]; 298.15 K) was 1.845 ± 0.075 mPa·s. The speed of sound ([1]; 298.15 K) was 1305.7 ± 1.5 m/s, the mass density ([1]; 298.15 K) was 927.6 ± 2 kg/m3 and 927.7 ± 2 kg/m3 and the viscosity ([1]; 303.15 K) was 1.661 ± 0.067 mPa·s. It also gave a speed of sound ([1]; 303.15 K) of 1286.7 ± 1.5 m/s, a mass density ([1]; 303.15 K) of 923.1 ± 2 kg/m3 and a viscosity ([1]; 308.15 K) of 1.503 ± 0.061 mPa·s. The speed of sound ([1]; 308.15 K) was 1268.6 ± 1.5 m/s, the mass density ([1]; 308.15 K) was 918.5 ± 2 kg/m3 and the viscosity ([1]; 313.15 K) was 1.365 ± 0.056 mPa·s. For the same compound, the speed of sound ([1]; 313.15 K) was 1250.2 ± 1.5 m/s, the mass density ([1]; 313.15 K) was 913.8 ± 2 kg/m3 and 913.9 ± 2 kg/m3 and the viscosity ([1]; 318.15 K) was 1.247 ± 0.051 mPa·s. It also gave a mass density ([1]; 318.15 K) of 909.3 ± 2 kg/m3, a viscosity ([1]; 323.15 K) of 1.143 ± 0.047 mPa·s and a speed of sound ([1]; 323.15 K) of 1213.8 ± 1.5 m/s. The mass density ([1]; 323.15 K) was 904.5 ± 2 kg/m3 and 904.6 ± 2 kg/m3, the viscosity ([1]; 328.15 K) was 1.051 ± 0.043 mPa·s and the mass density ([1]; 328.15 K) was 899.9 ± 2 kg/m3. For the same compound, the viscosity ([1]; 333.15 K) was 0.962 ± 0.039 mPa·s, the speed of sound ([1]; 333.15 K) was 1178.5 ± 1.5 m/s and the mass density ([1]; 333.15 K) was 895 ± 2 kg/m3 and 895.1 ± 2 kg/m3. For the same compound, the viscosity ([1]; 338.15 K) was 0.895 ± 0.037 mPa·s, the mass density ([1]; 338.15 K) was 890.4 ± 2 kg/m3 and the viscosity ([1]; 343.15 K) was 0.829 ± 0.034 mPa·s. For the same compound, the speed of sound ([1]; 343.15 K) was 1143.7 ± 1.5 m/s, the mass density ([1]; 343.15 K) was 885.5 ± 2 kg/m3 and 885.2 ± 2 kg/m3 and the viscosity ([1]; 348.15 K) was 0.77 ± 0.032 mPa·s. For the same compound, the mass density ([1]; 348.15 K) was 880.7 ± 2 kg/m3, the viscosity ([1]; 353.15 K) was 0.725 ± 0.03 mPa·s and the mass density ([1]; 353.15 K) was 875.8 ± 2 kg/m3. The viscosity ([1]; 358.15 K) was 0.666 ± 0.027 mPa·s, the mass density ([1]; 358.15 K) was 871 ± 2 kg/m3 and the viscosity ([1]; 363.15 K) was 0.623 ± 0.026 mPa·s. It also gave a mass density ([1]; 363.15 K) of 866.1 ± 2 kg/m3, a viscosity ([1]; 368.15 K) of 0.584 ± 0.024 mPa·s and a mass density ([1]; 368.15 K) of 861.2 ± 2 kg/m3. For the same compound, the viscosity ([1]; 373.15 K) was 0.518 ± 0.021 mPa·s, the mass density ([1]; 373.15 K) was 856.3 ± 2 kg/m3 and the refractive index ([2]; 283.15 K) was 1.4149 ± 0.00061. It also gave a refractive index ([2]; 288.15 K) of 1.4125 ± 0.00061, a refractive index ([2]; 293.15 K) of 1.41024 ± 0.00061 and a refractive index ([2]; 298.15 K) of 1.40803 ± 0.00061. The refractive index ([2]; 303.15 K) was 1.40613 ± 0.00061, the refractive index ([2]; 313.15 K) was 1.4018 ± 0.00061 and the refractive index ([2]; 323.15 K) was 1.39691 ± 0.00061. The refractive index ([2]; 333.15 K) was 1.39271 ± 0.00061, the refractive index ([2]; 343.15 K) was 1.38849 ± 0.00061 and the refractive index ([2]; 353.15 K) was 1.3838 ± 0.00061.
A speed of sound ([1]; 283.15 K) of 1428.9 ± 2.3 m/s, a mass density ([1]; 283.15 K) of 997.1 ± 4.1 kg/m3 and a viscosity ([1]; 288.15 K) of 5.157 ± 0.21 mPa·s were found for `CCOCCOCCO` [3,6-dioxa-1-octanol] in this work. For the same compound, the speed of sound ([1]; 288.15 K) was 1410.5 ± 2.3 m/s, the mass density ([1]; 288.15 K) was 993.9 ± 4.1 kg/m3 and 992.6 ± 4.1 kg/m3 and the viscosity ([1]; 293.15 K) was 4.466 ± 0.18 mPa·s. The speed of sound ([1]; 293.15 K) was 1392.6 ± 2.3 m/s, the mass density ([1]; 293.15 K) was 989.4 ± 4.1 kg/m3 and 988.2 ± 4.1 kg/m3 and the viscosity ([1]; 298.15 K) was 3.811 ± 0.16 mPa·s. The speed of sound ([1]; 298.15 K) was 1374.6 ± 2.3 m/s, the mass density ([1]; 298.15 K) was 983.7 ± 4.1 kg/m3 and 984.9 ± 4.1 kg/m3 and the viscosity ([1]; 303.15 K) was 3.328 ± 0.14 mPa·s. The speed of sound ([1]; 303.15 K) was 1356.8 ± 2.3 m/s, the mass density ([1]; 303.15 K) was 979.3 ± 4.1 kg/m3 and 980.4 ± 4.1 kg/m3 and the viscosity ([1]; 308.15 K) was 2.933 ± 0.12 mPa·s. The speed of sound ([1]; 308.15 K) was 1339 ± 2.3 m/s, the mass density ([1]; 308.15 K) was 974.8 ± 4.1 kg/m3 and 976 ± 4.1 kg/m3 and the viscosity ([1]; 313.15 K) was 2.592 ± 0.11 mPa·s. The speed of sound ([1]; 313.15 K) was 1321.7 ± 2.3 m/s, the mass density ([1]; 313.15 K) was 970.3 ± 4.1 kg/m3 and 971.5 ± 4.1 kg/m3 and the viscosity ([1]; 318.15 K) was 2.331 ± 0.097 mPa·s. It also gave a mass density ([1]; 318.15 K) of 967 ± 4.1 kg/m3, a viscosity ([1]; 323.15 K) of 2.099 ± 0.087 mPa·s and a speed of sound ([1]; 323.15 K) of 1286.9 ± 2.3 m/s. The mass density ([1]; 323.15 K) was 961.3 ± 4.1 kg/m3 and 962.5 ± 4.1 kg/m3, the viscosity ([1]; 328.15 K) was 1.901 ± 0.079 mPa·s and the mass density ([1]; 328.15 K) was 958.1 ± 4.1 kg/m3. For the same compound, the viscosity ([1]; 333.15 K) was 1.718 ± 0.071 mPa·s, the speed of sound ([1]; 333.15 K) was 1252.6 ± 2.3 m/s and the mass density ([1]; 333.15 K) was 952.2 ± 4.1 kg/m3 and 953.5 ± 4.1 kg/m3. It also gave a viscosity ([1]; 338.15 K) of 1.583 ± 0.066 mPa·s, a mass density ([1]; 338.15 K) of 949 ± 4.1 kg/m3 and a viscosity ([1]; 343.15 K) of 1.456 ± 0.061 mPa·s. For the same compound, the speed of sound ([1]; 343.15 K) was 1218.9 ± 2.3 m/s, the mass density ([1]; 343.15 K) was 944.4 ± 4.1 kg/m3 and 943.1 ± 4.1 kg/m3 and the viscosity ([1]; 348.15 K) was 1.343 ± 0.056 mPa·s. The mass density ([1]; 348.15 K) was 939.9 ± 4.1 kg/m3, the viscosity ([1]; 353.15 K) was 1.225 ± 0.051 mPa·s and the mass density ([1]; 353.15 K) was 935.3 ± 4.1 kg/m3. For the same compound, the viscosity ([1]; 358.15 K) was 1.153 ± 0.048 mPa·s, the mass density ([1]; 358.15 K) was 930.7 ± 4.1 kg/m3 and the viscosity ([1]; 363.15 K) was 1.072 ± 0.045 mPa·s. It also gave a mass density ([1]; 363.15 K) of 926.1 ± 4.1 kg/m3, a viscosity ([1]; 368.15 K) of 0.997 ± 0.042 mPa·s and a mass density ([1]; 368.15 K) of 921.4 ± 4.1 kg/m3. It also gave a viscosity ([1]; 373.15 K) of 0.921 ± 0.038 mPa·s, a mass density ([1]; 373.15 K) of 916.8 ± 4.1 kg/m3 and a refractive index ([2]; 283.15 K) of 1.4311 ± 0.0007. For the same compound, the refractive index ([2]; 288.15 K) was 1.42916 ± 0.0007, the refractive index ([2]; 293.15 K) was 1.42711 ± 0.0007 and the refractive index ([2]; 298.15 K) was 1.42501 ± 0.0007. It also gave a refractive index ([2]; 303.15 K) of 1.4229 ± 0.0007, a refractive index ([2]; 313.15 K) of 1.41887 ± 0.0007 and a refractive index ([2]; 323.15 K) of 1.41483 ± 0.0007. It also gave a refractive index ([2]; 333.15 K) of 1.41082 ± 0.0007, a refractive index ([2]; 343.15 K) of 1.40683 ± 0.0007 and a refractive index ([2]; 353.15 K) of 1.40276 ± 0.0007.
